Like-named read-outs stand apart in the source and are kept apart here.
What was measured:
[1] = system: human alveolar epithelial cell line A549; assay: Acute cytotoxicity, MTS reduction, A549; format: cell-based; conditions: A549, 48 h; for cell damage (viability, MTS reduction): concentrations as high as 400 µM; for concentration producing acute toxicity: MTS
Description: The human alveolar epithelial cell line A549 (ATCC: CCL-185) was grown in Roswell Park Memorial Institute (RPMI-1640) medium (Sigma-Aldrich) supplemented with 10 % FCS (Lonza), 2 mM L-glutamine (Gibco), 50 µg/mL penicillin (Gibco), 50 µg/mL streptomycin (Gibco), and 100 µg/mL neomycin (Gibco) at 37 °C in a humidified atmosphere containing 5 % CO2 (hereafter referred to as complete cell culture medium and standard growth conditions, respectively). Cells were subcultured at approximately 80–90 % confluency using 0.5 % trypsin–EDTA (Sigma-Aldrich). For viability assessment, 1.5 × 10^4 cells per well were seeded in 200 µL complete cell culture medium in a 96-well plate and grown overnight under standard growth conditions, after which the cells were treated for 48 h with 200 µL standard growth medium per well containing increasing concentrations of the flame retardants or positive control agent CdSO4. CellTiter96® AQueous One Solution (Promega) containing MTS (3-(4,5-dimethylthiazol-2-yl)-5-(3-carboxymethoxy-phenyl)-2-(4-sulfophenyl)-2H) as a water-soluble tetrazolium compound was used according to the manufacturer’s protocol. Absorption was detected at 490 nm.

Desmodesmus subspicatus = format: cell-based
Description: Suppl. Fig. 6. Freshwater microalgae toxicity test. Acute toxicity was tested by assessing algal growth inhibition applying Desmodesmus subspicatus according to OECD guideline number 201. Growth inhibition tests were performed using an initial cell density of 5 x 10^3 cells/ml (= OD680 of 0.005). The cells were maintained in 250 mL flasks containing 100 mL of sterile OECD algal medium at 22°C at 130 rpm illuminated with 3000 lux. Cell density was detected photospectrometrically at λ680 nm in 24 h intervals in algae cultures treated with the respective flame retardants. Experiments were performed by BMG Engineering Ltd., […]
(§1) (1 picture or pasted object on this page, not shown here)

human neural crest cells = assay: Neural crest cell (NCC) migration assay; format: cell-based; conditions: for cell migration / cell viability / concentration range in which migration was far more affected than cell viability: NCC, 24 h
Description: Human embryogenic stem cells (H9 hESC line; Wisconsin International Stem Cell Bank, Madison, WI, USA) were plated on a confluent layer of mitomycin C-treated murine bone marrow-derived stromal MS5 cells and differentiated as previously described (Lee et al. [2010]; Zimmer et al. [2012]). After 21 days, rosettes were picked and plated onto poly-L-ornithine/laminin/fibronectin-coated plates in N2 medium. After 7 days, cells were FACS-sorted for positive expression of the neural crest marker human natural killer-1 (HNK-1) and expanded in N2 medium supplemented with epidermal growth factor (EGF, 20 ng/mL) and fibroblast growth factor (FGF2, 20 ng/mL). For expansion, the cells were passaged every 6 days using accutase (PAA, Pasching, Austria) to detach the cells. After 30 days of expansion, the cells were cryopreserved in 90 % fetal bovine serum, 10 % DMSO. For the analysis of neural crest cell migration, silicone stoppers (Platypus Technologies, Madison, WI, USA) were inserted in a 96-well plate coated with poly-L-ornithine/laminin/fibronectin. Freshly thawed NCCs were seeded at a density of 100,000 cells/cm^2 in N2 medium containing EGF and FGF2 and allowed to attach for 1 day. Stoppers were removed, and the cells were allowed to migrate into the center of the well. Compounds tested in this study were diluted from a 10 mM stock in DMSO and were applied for 24 h. For single cell detection, cells were stained with H-33342 (1 µg/mL) and calcein-AM (0.5 µM) and imaged using a high content imaging microscope (Cellomics ArrayScanVTI, Thermo Fischer). Viability was assessed by counting the number of H-33342 and calcein double-positive cells outside the migration zone. Migration was detected by acquisition of the number of H-33342 and calcein double-positive cells in the migration area.

Daphnia magna = assay: Acute daphnia immobilization test (OECD guideline 202); format: in vivo; conditions: for daphnia viability: at concentrations ≤400 µM (abstract); for Immobile Daphnia after 48 h: 20 individuals
Description: Loading Num ber of I m m obile rate Replicat e individuals Da phnia
(mg/l) per test af t er 48 h
Suppl. Fig. 5. Freshwater microcrustacean toxicity test. Acute toxicity was determined in Daphnia magna according to the standardized OECD guidelines number 202 test, performed by BMG Engineering Ltd., Schlieren, Switzerland. Daphnia were cultured in aerated Elendt M4 medium at a constant temperature of 21°C under a 16:8 light/dark photoperiod. The water soluble fraction of the indicated concentrations of flame retardants were added for 48 h.
Mortality was assessed by the detection of movement analysis. Immobile Daphnia were defined as those animals displaying no movement within a 15 s period following shaking of […]

[2] = system: differentiated LUHMES cells; format: cell-based, human; conditions: at high concentrations, correlated with neurite degeneration
Description: Suppl. Fig. 10. Migration of mitochondria in neurites. Mitochondrial migration was detected in fully differentiated (day 6 of differentiation, DoD6) mixed LUHMES cultures consisting of 3% eGFP/mito-tRFP-overexpressing LUHMES in 97% unlabeled LUHMES in order to allow tracking of mitochondria in single neurites in an environment of normal LUHMES cell density (Schildknecht et al. 2013, ALTEX 30(4):427-444). Single cell time lapse imaging was performed for a period of 90 s in intervals of 3 s with a Zeiss LSM 780 inverted fluorescence microscope YOKOGAWA CSU-XI spinning disk system using an EVOLVE camera (Carl Zeiss Group, Oberkochen, Germany) equipped with a 5% CO2 /37°C controlled chamber and a 40 x 1.3 NA oil objective. For image analysis, kymographs (graphical representation of spatial position over time) based on the data obtained from single cell time lapse experiments were created using ImageJ Software (NIH, Bethesda, USA). The neurite was manually defined by the segmented line tool. To calculate mitochondrial velocity, diagonal lines were drawn for each moving mitochondrium in the kymograph and analysed by calculating the slope with the macro-plugin Kymo Line ROI, generated by Felix Schöneberger, Bioimaging Center (BIC), University of Konstanz, Germany.
as §1

[3] = at concentrations ≤400 µM (abstract)
[4] = concentrations as high as 100 µM
[5] = highest tested concentrations, water-soluble fraction of 1000 mg/L (approximately 2 mM)
[6] = loading rate 10 mg/l, replicate A
[7] = loading rate 10 mg/l, replicate B
[8] = loading rate 100 mg/l, replicate A
[9] = loading rate 100 mg/l, replicate B
[10] = loading rate 1000 mg/l, replicate A
[11] = loading rate 1000 mg/l, replicate B

Structure (SMILES)	cell damage (viability, MTS reduction) [1]	algae growth (Desmodesmus subspicatus; [3])	cell migration (human neural crest cells)	NCC migration and NCC viability (human neural crest cells; [4])	daphnia viability (Daphnia magna)	algae growth (Desmodesmus subspicatus; [5])	Immobile Daphnia after 48 h (Daphnia magna; [6])	Immobile Daphnia after 48 h (Daphnia magna; [7])	Immobile Daphnia after 48 h (Daphnia magna; [8])	Immobile Daphnia after 48 h (Daphnia magna; [9])	Immobile Daphnia after 48 h (Daphnia magna; [10])	Immobile Daphnia after 48 h (Daphnia magna; [11])	concentration producing acute toxicity [1]	mitochondrial velocity [2]	cell viability (human neural crest cells)	concentration range in which migration was far more affected than cell viability (human neural crest cells)	viability of human NCCs (human neural crest cells; [4])
O=[PH]1Oc2ccccc2-c2ccccc21 (stereo not shown) [DOPO, 9,10-dihydro-9-oxa-10-phosphaphenanthrene-10-oxide]	no signs of cell damage	nor did they affect algae growth or daphnia viability	inhibited neither cell migration	influenced neither NCC migration nor NCC viability	nor did they affect algae growth or daphnia viability												
O=P1(NCCNP2(=O)Oc3ccccc3-c3ccccc32)Oc2ccccc2-c2ccccc21 (stereo not shown) [EDA-DOPO, 6,6′-(ethane-1,2-diylbis(azanediyl))bis(6H-dibenzo[c,e][1,2]oxaphosphinine-6-oxide)]	no signs of cell damage	nor did they affect algae growth or daphnia viability	inhibited neither cell migration	influenced neither NCC migration nor NCC viability	nor did they affect algae growth or daphnia viability	no effect	0%	0%	0%	0%	5%	10%					
O=P1(OCCOP2(=O)Oc3ccccc3-c3ccccc32)Oc2ccccc2-c2ccccc21 (stereo not shown) [EG-DOPO, 6,6′-(ethane-1,2-diylbis(oxy))bis(6H-dibenzo[c,e][1,2]oxaphosphinine-6-oxide)]			concentration-dependent declines			inhibited algae growth	0%	0%	10%	0%	5%	10%	> 20 µM	influenced mitochondrial velocity	concentration-dependent declines	30 to 60 µM	
O=P1(NCCOP2(=O)Oc3ccccc3-c3ccccc32)Oc2ccccc2-c2ccccc21 (stereo not shown) [ETA-DOPO, 6-(2-((6-oxido-6H-dibenzo[c,e][1,2]oxaphosphinin-6-yl)amino)ethoxy)-6H-dibenzo[c,e][1,2]oxaphosphinine 6-oxide]			concentration-dependent declines			no effect	5%	0%	0%	0%	5%	0%	> 20 µM	influenced mitochondrial velocity	concentration-dependent declines	30 to 60 µM	
Brc1ccc(Oc2cc(Br)c(Br)cc2Br)c(Br)c1 [PBDE-99, reference compound]	no signs of cell damage		moderately, but significantly, inhibited											influenced mitochondrial velocity	did not reduce cell viability		did not reduce the viability

Source: paper PMC5225203, “Multiparameter toxicity assessment of novel DOPO-derived organophosphorus flame retardants” (Archives of Toxicology, 2016)
